Marks after values point to notes of the source that are not given here.

What is called inhibition is the relative decrease from the control value, in per cent.

The test system of experiment [1] is extracellular DA levels in the nucleus accumbens. Nature of the experiment: Microdialysis: amphetamine-evoked DA levels in the nucleus accumbens of freely moving rats. Conditions: for Normalised DA level in the nucleus accumbens: compound 5 mg/kg s.c., D-amphetamine 0.5 mg/kg s.c. 30 min later; for Effect on the basal extracellular DA level in the nucleus accumbens: without amphetamine, data not shown. The class given is in vivo, rat. The procedure: Subjects. Male Sprague-Dawley rats (Charles River), initially weighing 275-300 g, are used.
Surgery. Animals are anaesthetized with hypnorm/dormicum (2 ml/kg s.c.) and intracerebral guide cannulas (CMA/12) are stereotaxically implanted, positioning the dialysis probe tip in the nucleus accumbens (co-ordinates: 1.7 mm anterior to bregma, −1.2 mm lateral to bregma, 8.0 mm ventral to the dura). Anchor screws and acrylic cement is applied for fixation of the guide cannula. The body temperature of the animals is maintained at 37° C. by means of a rectal probe and a heating plate. The rats are allowed to recover from surgery for 2 days, housed singly in cages.
Experimental procedure. On the day of the experiment, a microdialysis probe (CMA/12, 0.5 mm diameter, 2 mm length) is inserted through the guide cannula of the conscious animal. The probes are connected to a microinjection pump via a dual channel swivel which allowed the animals unrestricted movements. Perfusion of the microdialysis probe with filtered Ringer solution (145 mM NaCl, 3 mM KCl, 1 mM MgCl2, 1.2 mM CaCl2) is maintained for the duration of the experiment at a constant flow rate of 1 μL/min. After 180 min of stabilisation, the experiments are initiated. Dialysates are collected every 20 min. After the experiments the rats are sacrificed by decapitation, their brains removed, frozen and sliced for probe placement verification.
Administration of compounds. […] Thirty minutes later, D-amphetamine sulphate (0.5 mg/kg s.c.) is administered.
Analysis of dialysate. The concentration of DA in the dialysates is assessed by means of HPLC with electrochemical detection. The dialysate constituents are separated by reverse phase liquid chromatography (ODS 150×3 mm, […]). Mobile phase consists of 90 mM NaH2PO4, 50 mM sodium citrate, 367 mg/l sodium 1-octanesulfonic acid, 50 μM EDTA and 8% acetonitrile (pH 4.0) at a flow rate of 0.5 ml/min. Electrochemical detection of DA is accomplished using a coulometric detector; potential set at E1=−75 mV and E2=300 mV (guard cell at 350 mV) (Coulochem II, ESA). The dialysate levels of DA in the three dialyse samples preceding the administration of compound are averaged and used as baseline level of DA (100%)
Statistical analysis. The dialysate levels of DA in the three dialyse samples preceding the administration of compound are averaged and used as baseline level of DA (100%). Data are analysed using repeated measure analyses of variance followed by post hoc tests (Tukey test), when appropriate. *P<0.05 were considered significant.

Experiment [2] deals with conditioned avoidance response. The experiment in a line: Conditioned avoidance response in rats. Conditions: Rattus norvegicus, sc, rats, read-out: % inhibition of avoidance (Std. dev.) Relative to baseline; for inhibition at 2.5 mg/kg: 2.5 mg/kg s.c. 30 min before the test; for inhibition at 5 mg/kg: 5 mg/kg s.c. 30 min before the test. The class given is in vivo, rat. The procedure: Subjects. Male Wistar rats (Taconic, Denmark) weighing 150 g at the beginning of the study are used. The rats are housed in pairs and maintained on a 12 h light/dark cycle (lights on 06:00). The animals are fed once daily (approx. 6 pellets/rat) in order to keep the rats at 80% of their free-feeding weight. Water is available ad libitum. Temperature (21±1° C.) and relative humidity (55±5%) are automatically controlled.
Experimental procedure. Conditioned avoidance testing is conducted using four automated shuttle-boxes (ENV-010M, MED-Associates) each placed in a sound-attenuated chamber. Each box is divided into two compartments by a partition with an opening. The position of the animal and crossings from one compartment to the other are detected by two photocells placed on either side of the dividing wall. Upon presentation of the conditioned stimuli (CS), tone and light, the animals have 10s to cross to the other compartment of the shuttle-box in order to turn the CS off (end the trial) and avoid the appearance of the unconditioned stimulus (UCS). If the rat remains in the same compartment for more than 10s, the UCS is presented as 0.5 mA scrambled foot-shocks until escape is performed or 10s in maximal duration. The following behavioural variables are evaluated: avoidance (response to CS within 10s); escape (reponse to CS+UCS); escape failures (failure to respond); intertrial crosses and locomotor activity. The rats are habituated to the shuttle-box 3 min before each test session. During training each test session consists of 30 trials with intertrial intervals varying randomly between 20s and 30s. Training is carried out until the rats display an avoidance of 80% or more, on 3 consecutive days. A test is preceded by a pre-test the day before giving rise to a baseline value for each animal, thus the animals serve as their own control. Seven to eight rats are used at each dose level. A parallel control group receiving the vehicle of the test compound is also included.
Administration of compound. […] All compounds are dissolved in a vehicle of 10% 2-hydroxy-propyl-beta-cyclodextrin (isotonic with glucose, pH 5-7).
Statistical analyses. The effects of compounds on avoidance and escape failure behaviours are statistically evaluated by means of two-way repeated measures ANOVA followed by post hoc comparisons (Student-Newman-Keuls Method) when appropriate. P-levels <0.05 are considered statistically significant.

Experiment [3] concerns immobility in the mouse forced swim test. Nature of the experiment: Mouse forced swim test. The class given is in vivo. The settings on record: mice, time immobile during last 3 min of 6 min swim, vehicle = 100. The method, then:
Subjects. Male NMRI mice (Charles River) weighing 23-25 g are used. […] 8 mice are used pr experimental group.
Experimental procedure. The mice are placed in 2000 ml beaker containing 1200 ml of tempered water (25° C.) and left to swim for 6 min. The performance of the mice is videorecorded, digitalized and analysed by means of a digital analysis system (Bioobserve). The time spent immobile for the last 3 min. of the test session is quantified for each mouse.
Analyses. […] A post-hoc test (Student-Newman-Keuls) is employed when appropriate. P-levels <0.05 were considered significant.

Experiment [4] has as its system dopaminergic neurons in the ventral tegmental area. Nature of the experiment: Spontaneous DA cell firing in the VTA of anaesthetised rats (extracellular single-cell recordings). The settings on record: mean ± SEM.
Description: Subjects. Male Wistar rats (Harlan, The Netherlands) weighing 270-340 g are used. The animals are housed under a 12-hr light/dark cycle under controlled conditions for regular in-door temperature (21±2° C.) and humidity (55±5%) with food and tap water available ad libitum.
Administration of compound. […] These i.v. doses match the s.c. dose range of 0-10 mg/kg.
Statistical analysis. Drug effects are assessed by statistical comparison of the mean firing rate calculated from the 2-3 min period immediately before the first drug administration (baseline) to the mean firing rate calculated from at least 60 s at the maximal drug effect. Data are analysed statistically by a one-way analysis of variance (ANOVA) followed by Student-Newman-Keuls post hoc test. A p-value less than 0.05 is considered significant.
The test system of experiment [5] is d-amphetamine induced hyperactivity in rats. The experiment in a line: Amphetamine-induced hyperactivity in the rat (amphetamine antagonism). The class given is in vivo. The settings on record: read-out: Amphetamine antagonism ED50 (mg/kg) ± std. dev. The source says: Subjects. Male Wistar rats (Taconic, Denmark) weighing 170-240 g are used. […] Eight rats are used at each dose level and in the parallel control group receiving the vehicle to the test compound plus d-amphetamine and the group receiving vehicle injections only.

[6] abbreviates: 2.5 mg/kg s.c. 30 min before test.
[7] abbreviates: 5.0 mg/kg s.c. 30 min before test.

Regarding `Cc1cc(N2CCOCC2)cc(C)c1NC(=O)CC1CCCC1`, the “Normalised DA level in the nucleus accumbens” value (“Normalised DA level” for short) in experiment [1] (Time 0 min (baseline sample)) is reported as 99 ± 4 % of baseline; in experiment [1] (Time 20 min) it was 125 ± 9 % of baseline; in experiment [1] (Time 40 min) it was 264 ± 39 % of baseline; in experiment [1] (Time 60 min), 265 ± 17* % of baseline; in experiment [1] (Time 80 min) it was 231 ± 22 % of baseline; in experiment [1] (Time 100 min) it was 167 ± 25 % of baseline. Also, the “Normalised DA level” value in experiment [1] (Time 120 min) was 109 ± 11 % of baseline; in experiment [1] (Time 140 min) it was 93 ± 15 % of baseline; in experiment [1] (Time −20 min (baseline sample)) it was 106 ± 5 % of baseline; in experiment [1] (Time −40 min (baseline sample)), 95 ± 6 % of baseline. Moreover, the “Effect on the basal extracellular DA level in the nucleus accumbens” value in experiment [1] is recorded as “None of the latter three compounds significantly affects the basal extracellular DA level”. Further, in experiment [2], the inhibition at 2.5 mg/kg was determined as 5%. The inhibition at 5 mg/kg in experiment [2] is 65%. For the same compound, the “Immobility in % (±S.D.)” value in experiment [3] (1.3 mg/kg) is given as 97.5 (6.3) %; in experiment [3] (setting [6]), 97 (6.7) %; in experiment [3] (setting [7]), 81.0 (18)* %. In addition, the “Spontaneous DA cell firing rate in the VTA” value in experiment [4] (cumulated dose 0.03 mg/kg i.v.) is 95.1 ± 1.9 (4) percentage of baseline firing rate; in experiment [4] (cumulated dose 0.1 mg/kg i.v.), 88.2 ± 2.8 (5) percentage of baseline firing rate; in experiment [4] (cumulated dose 0.3 mg/kg i.v.), 74.6 ± 3.6 (4) percentage of baseline firing rate; in experiment [4] (cumulated dose 0.6 mg/kg i.v.) it was 64.1 ± 7.1 (2) percentage of baseline firing rate; in experiment [4] (cumulated dose 0.9 mg/kg i.v.) it was 55.8 ± 6.5 (2) percentage of baseline firing rate.

As for `Cc1cc(N2CCOCC2)cc(C)c1NC(=O)CC(C)(C)C`, the “Normalised DA level” value in experiment [1] (Time 0 min (baseline sample)) is given as 91 ± 4 % of baseline; in experiment [1] (Time 20 min) it was 112 ± 12 % of baseline; in experiment [1] (Time 40 min), 227 ± 46 % of baseline; in experiment [1] (Time 60 min), 262 ± 53* % of baseline; in experiment [1] (Time 80 min), 195 ± 38* % of baseline; in experiment [1] (Time 100 min) it was 172 ± 24 % of baseline. The “Normalised DA level” value in experiment [1] (Time 120 min) is given as 166 ± 32 % of baseline; in experiment [1] (Time 140 min) it was 129 ± 35 % of baseline; in experiment [1] (Time −20 min (baseline sample)), 100 ± 3 % of baseline; in experiment [1] (Time −40 min (baseline sample)), 108 ± 5 % of baseline. Moreover, in experiment [1], the “Effect on the basal extracellular DA level in the nucleus accumbens” value is reported as “None of the latter three compounds significantly affects the basal extracellular DA level”. The inhibition at 2.5 mg/kg in experiment [2] worked out at 1%. Further, the inhibition at 5 mg/kg in experiment [2] stood at 71%. For the same compound, the “Immobility in % (±S.D.)” value is 102 (4.6) % in experiment [3] (1.3 mg/kg), 96.7 (7.5) % in experiment [3] (setting [6]) and 82.3 (20)* % in experiment [3] (setting [7]). The “Spontaneous DA cell firing rate in the VTA” value was 89.8 ± 4.5 (5) percentage of baseline firing rate in experiment [4] (cumulated dose 0.03 mg/kg i.v.); 81.0 ± 4.0 (5) percentage of baseline firing rate in experiment [4] (cumulated dose 0.1 mg/kg i.v.); 74.1 ± 6.3 (4) percentage of baseline firing rate in experiment [4] (cumulated dose 0.25 mg/kg i.v.); 68.1 ± 6.0 (4) percentage of baseline firing rate in experiment [4] (cumulated dose 0.5 mg/kg i.v.); 57.1 ± 7.9 (3) percentage of baseline firing rate in experiment [4] (cumulated dose 1.0 mg/kg i.v.).

As to `Cc1cc2c(s1)Nc1ccccc1N=C2N1CCN(C)CC1` [Olanzapine, reference compound], in experiment [5], the ED50 came out at 0.21 mg/kg. The “Immobility in % (±S.D.)” value in experiment [3] (0.31 mg/kg) is 96 (14) %; in experiment [3] (1.3 mg/kg) it was 95 (11) %.

Values taken from patent US20100256145A1, “USE OF KCNQ POTASSIUM CHANNEL OPENERS FOR REDUCING SYMPTOMS OF OR TREATING DISORDERS OR CONDITIONS WHEREIN THE DOPAMINERGIC SYSTEM IS DISRUPTED” (H. LUNDBECK A/S, priority 2007, published 2010).
